Measured values published in patent US8466088B2, “Herbicidal compositions containing benzoylpyrazole compounds” (Ishihara Sangyo Kaisha, Ltd., priority 2007, dated 2013).
Read-outs that look alike come from different tables or passages of the source.

How the values were obtained:
crabgrass = experiment: Example 1: pot test, foliar treatment, visually observed growth inhibition of crabgrass; assay type: in vivo; conditions: Digitaria sanguinalis, foliar, read-out: Growth inhibition rate (%) of crabgrass, Measured value
velvetleaf = experiment: Example 1: pot test, foliar treatment, visually observed growth inhibition of velvetleaf; assay type: in vivo, Abutilon theophrasti MEDIC.; conditions: Abutilon theophrasti, foliar, read-out: Growth inhibition rate (%) of velvetleaf, Measured value
various plants = experiment: Example 1: pot test, foliar treatment, visually observed growth inhibition of other sown plants (Tables 5-1 to 5-137); assay type: in vivo; conditions: foliar
Source text: When the herbicidal activity in a case where two active ingredients are combined, is larger than the simple sum of the respective herbicidal activities of the two active ingredients (the expected activity), it is called a synergistic effect. The activity expected by the combination of two active ingredients can be calculated as follows (Colby S. R., “Weed”, vol. 15, p. 20-22, 1967). E=α+β−(α×β+100) where
α: growth inhibition rate when treated with x (g/ha) of herbicide X,
β: growth inhibition rate when treated with y (g/ha) of herbicide Y,
E: growth inhibition rate expected when treated with x (g/ha) of herbicide X and y (g/ha) of herbicide Y.
That is, when the actual growth inhibition rate (measured value) is larger than the growth inhibition rate by the above calculation (calculated value), the activity by the combination can be regarded as showing a synergistic effect.
Upland field soil was put into a 1/1,000,000 hectare pot, and seeds of various plants were sown. When the respective plants reached predetermined leaf stage, herbicidal compositions in predetermined amounts were diluted with water in an amount corresponding to 300 L/ha and applied for foliar treatment by a small sprayer.
On the 14th to 28th day after application, the state of growth of the respective plants was visually observed to determine the growth inhibition rate (measured value) in accordance with the following evaluation standard. Further, in accordance with the above Colby's formula, the growth inhibition rate (calculated value) was calculated. In Tables, with respect to the compound A, Compound Nos. in Table 1 or 3 are described, and with respect to other herbicidal compounds, common names are described.

[1] = 3.1 to 4.0 leaf stage, 22nd day after application
[2] = 3.2 to 4.3 leaf stage, on the 22nd day after application, active ingredient amount 250 g/ha
[3] = 4.3 to 4.5 leaf stage, 20th day after application, 125 g/ha
[4] = 4.3 to 4.5 leaf stage, 20th day after application, 250 g/ha
[5] = 2.4 to 3.2 leaf stage, on the 22nd day after application, active ingredient amount 125 g/ha
[6] = 2.8 to 3.6 leaf stage, 24th day after application
[7] = 3.0 to 3.5 leaf stage, 20th day after application, 125 g/ha
[8] = 4.0 to 4.4 leaf stage, 22nd day after application
[9] = 2.7 to 3.6 leaf stage, 21st day after application
[10] = 3.2 to 4.1 leaf stage, 21st day after application

## COc1cc(OC)nc(NC(=O)NS(=O)(=O)c2ncccc2C(=O)N(C)C)n1 [Nicosulfuron]
crabgrass; 3.5 to 4.2 leaf stage, 20th day after application, 30 g/ha
  inhibition at 30 g/ha: 92%
crabgrass; 3.8 to 4.4 leaf stage, 21st day after application
  inhibition at 15 g/ha: 45%
crabgrass; 3.8 to 5.2 leaf stage, 21st day after application
  inhibition at 15 g/ha: 40%
crabgrass; 4.3 to 4.5 leaf stage, 20th day after application
  inhibition at 15 g/ha: 88%
velvetleaf; 2.5 to 3.3 leaf stage, 21st day after application, 10 g/ha
  inhibition at 10 g/ha: 10%
velvetleaf; 2.5 to 3.3 leaf stage, 21st day after application, 20 g/ha
  inhibition at 20 g/ha: 20%
velvetleaf; 2.5 to 3.3 leaf stage, 21st day after application, 30 g/ha
  inhibition at 30 g/ha: 20%
velvetleaf; 2.8 to 3.6 leaf stage, 24th day after application, 80 g/ha
  inhibition at 80 g/ha: 60%
velvetleaf; 3.0 to 3.5 leaf stage, 21st day after application
  inhibition at 15 g/ha: 45%
velvetleaf; 3.0 to 3.8 leaf stage, 28th day after application
  inhibition at 15 g/ha: 10%
velvetleaf; 3.3 to 4.3 leaf stage, 20th day after application, 50 g/ha
  inhibition at 50 g/ha: 50%
Various plants; prickly sida 2.1 to 3.1 leaf stage, 20th day after application, 7 g/ha, read-out: Growth inhibition rate (%) of prickly sida, Measured value
  inhibition at 7 g/ha: 0%
Various plants; prickly sida 2.1 to 3.1 leaf stage, 20th day after application, 20 g/ha, read-out: Growth inhibition rate (%) of prickly sida, Measured value
  inhibition at 20 g/ha: 0%
Various plants; prickly sida 2.1 to 3.1 leaf stage, 20th day after application, 30 g/ha, read-out: Growth inhibition rate (%) of prickly sida, Measured value
  inhibition at 30 g/ha: 10%
Various plants; prickly sida 2.1 to 3.1 leaf stage, 20th day after application, 60 g/ha, read-out: Growth inhibition rate (%) of prickly sida, Measured value
  inhibition at 60 g/ha: 55%

## CCNc1nc(Cl)nc(NC(C)(C)C)n1 [Terbuthylazine, terbuthylazine, reference compound]
crabgrass; [1]
  inhibition at 175 g/ha: 0%
  inhibition at 375 g/ha: 0%
crabgrass; [2]
  inhibition at 250 g/ha: 20%
crabgrass; 3.5 to 4.0 leaf stage, 21st day after application, 125 g/ha
  inhibition at 125 g/ha: 0%
crabgrass; [3]
  inhibition at 125 g/ha: 0%
crabgrass; [4]
  inhibition at 250 g/ha: 0%
velvetleaf; 2.0 to 2.5 leaf stage, 21st day after application, 125 g/ha
  inhibition at 125 g/ha: 0%
velvetleaf; [5]
  inhibition at 125 g/ha: 5%
velvetleaf; [6]
  inhibition at 2000 g/ha: 20%
velvetleaf; [7]
  inhibition at 125 g/ha: 0%
velvetleaf; 3.3 to 4.3 leaf stage, 20th day after application
  inhibition at 375 g/ha: 20%
velvetleaf; 3.3 to 4.3 leaf stage, 20th day after application, 750 g/ha
  inhibition at 750 g/ha: 30%
velvetleaf; [8]
  inhibition at 175 g/ha: 15%
  inhibition at 375 g/ha: 25%
Various plants; prickly sida 2.1 to 3.1 leaf stage, 20th day after application, 45 g/ha, read-out: Growth inhibition rate (%) of prickly sida, Measured value
  inhibition at 45 g/ha: 0%
Various plants; prickly sida 2.1 to 3.1 leaf stage, 20th day after application, 63 g/ha, read-out: Growth inhibition rate (%) of prickly sida, Measured value
  inhibition at 63 g/ha: 0%
Various plants; prickly sida 2.1 to 3.1 leaf stage, 20th day after application, 125 g/ha, read-out: Growth inhibition rate (%) of prickly sida, Measured value
  inhibition at 125 g/ha: 0%
Various plants; prickly sida 2.1 to 3.1 leaf stage, 20th day after application, 250 g/ha, read-out: Growth inhibition rate (%) of prickly sida, Measured value
  inhibition at 250 g/ha: 15%
Various plants; prickly sida 2.1 to 3.1 leaf stage, 20th day after application, read-out: Growth inhibition rate (%) of prickly sida, Measured value
  inhibition at 500 g/ha: 55%

## CCNc1nc(Cl)nc(NC(C)C)n1 [Atrazine, atrazine, reference compound]
crabgrass; [9]
  inhibition at 175 g/ha: 0%
  inhibition at 375 g/ha: 20%
crabgrass; [1]
  inhibition at 375 g/ha: 0%
crabgrass; 3.2 to 4.3 leaf stage, on the 22nd day after application, active ingredient amount 125 g/ha
  inhibition at 125 g/ha: 0%
crabgrass; [2]
  inhibition at 250 g/ha: 0%
crabgrass; 3.8 to 4.4 leaf stage, 21st day after application, 150 g/ha
  inhibition at 150 g/ha: 0%
crabgrass; 4.0 to 4.5 leaf stage, 21st day after application, 125 g/ha
  inhibition at 125 g/ha: 10%
crabgrass; 4.0 to 4.5 leaf stage, 21st day after application, 250 g/ha
  inhibition at 250 g/ha: 10%
crabgrass; [3]
  inhibition at 125 g/ha: 0%
crabgrass; [4]
  inhibition at 250 g/ha: 0%
velvetleaf; [5]
  inhibition at 125 g/ha: 10%
velvetleaf; 2.8 to 3.6 leaf stage, 24th day after application, 1000 g/ha
  inhibition at 1000 g/ha: 15%
velvetleaf; 2.8 to 3.6 leaf stage, 24th day after application, 1500 g/ha
  inhibition at 1500 g/ha: 15%
velvetleaf; [6]
  inhibition at 2000 g/ha: 25%
velvetleaf; [7]
  inhibition at 125 g/ha: 0%
velvetleaf; 3.0 to 3.5 leaf stage, 21st day after application, 125 g/ha
  inhibition at 125 g/ha: 10%
velvetleaf; 3.0 to 3.5 leaf stage, 21st day after application, 250 g/ha
  inhibition at 250 g/ha: 20%
velvetleaf; 3.0 to 3.8 leaf stage, 15th day after application
  inhibition at 150 g/ha: 0%
velvetleaf; [10]
  inhibition at 175 g/ha: 3%
  inhibition at 375 g/ha: 5%
velvetleaf; 3.2 to 5.0 leaf stage, 21st day after application
  inhibition at 150 g/ha: 60%
velvetleaf; 3.5 to 4.3 leaf stage, 21st day after application
  inhibition at 150 g/ha: 0%
velvetleaf; [8]
  inhibition at 175 g/ha: 20%
  inhibition at 375 g/ha: 25%
Various plants; Ipomoea, ivyleaf morningglory 1.5 to 2.1 leaf stage, 23rd day after application, 31 g/ha, read-out: Growth inhibition rate (%) of ivyleaf morningglory, Measured value
  inhibition at 31 g/ha: 0%
Various plants; Ipomoea, ivyleaf morningglory 1.5 to 2.1 leaf stage, 23rd day after application, 90 g/ha, read-out: Growth inhibition rate (%) of ivyleaf morningglory, Measured value
  inhibition at 90 g/ha: 0%
Various plants; Ipomoea, ivyleaf morningglory 1.5 to 2.1 leaf stage, 23rd day after application, 180 g/ha, read-out: Growth inhibition rate (%) of ivyleaf morningglory, Measured value
  inhibition at 180 g/ha: 0%
Various plants; Ipomoea, ivyleaf morningglory 1.5 to 2.1 leaf stage, 23rd day after application, read-out: Growth inhibition rate (%) of ivyleaf morningglory, Measured value
  inhibition at 500 g/ha: 83%
